Measured values: patent publication US20260053767A1, “Hepatoprotective Compositions And Methods” (Jemyll, Ltd., priority 2022, published 2026)
Entries after “also recorded” stand apart in the source; their conditions may differ.

What was measured:
[1] = system: liver cells (AML-12 cells); experiment: Total antioxidant capacity in liver cells; type: cell-based; conditions: AML-12 liver cells, in the presence of hydrogen peroxide
Text: (§1) To that end, the inventors used endothelial cells (EOMA cells) and liver cells (AML-12 cells) in vitro and quantified various markers in response to exposure of the cells to environmental challenge in the presence and absence of DDA at low concentrations. Unless indicated otherwise, the DDA concentration in the in vitro experiments was 5 mcg per microliter. More specifically, the inventors measured p-H2AX protein levels as a marker for DNA damage, PGC-1α protein levels as a marker for mitochondrial biogenesis, NAMPT enzyme levels as a marker for potential for NAD+ production, and total antioxidant capacity as a marker of cellular health. In addition, the inventors also measured global SIRT activity as a gauge of activity for all SIRT enzymes, and in particular SIRT1 enzyme levels as markers for autophagy and various beneficial processes associated with a caloric restricted diet, and SIRT3 levels as markers for mitochondrial function and longevity.

NAMPT = NAMPT enzyme levels in liver cells; type: cell-based; conditions: AML-12 liver cells
Text: as §1
To evaluate the effect of DDDA on energy metabolism, and particularly on NAD+ synthesis, the inventors also tested the effect of DDDA on NAMPT in liver cells.

SIRT3 = SIRT3 protein levels in liver cells; type: cell-based; conditions: AML-12 liver cells, 24 hours; p=0.028
Text: as §1
In still further experiments, the inventors also investigated whether or not DDDA could have stimulatory effects on selected SIRT proteins. More specifically, the inventors tested the effects of DDDA on SIRT3 and SIRT1, and exemplary results are shown in FIG. 9 and FIG. 10, respectively. […] N=5-6 plates per treatment. […] Beyond this trend, however, no other observations were evident. N=5-6 plates per treatment.

Wistar rats = experiment: Study 1 (prevention): oral glucose tolerance test and HOMA-IR; type: in vivo; conditions: Study 1: 1% (w/vol) in drinking water with high fat-high cholesterol diet for 4 weeks
Procedure: Study design: All animal procedures were approved by the Catholic University of Rome Institutional Animal Care Committee. The design of the studies is summarized in FIG. 18, Panels A and B. • Study 1: Twenty adult Wistar rats, aged 8-10 weeks, were included in the study. The rats were housed in individual cages at 22° C. with 12-h light cycles and had ad libitum access to food and water. Rats were fed a high-fat high-cholesterol diet (44% Carbohydrate, 14% Protein, 42% fat+0.2% Cholesterol) (Mucedola, Milan, IT) for four weeks in the presence or absence of 1% Dodecanedioic acid, sodium salt (w/vol) dissolved in the water (FIG. 18, Panel A). Body weight and food/water intake were monitored weekly. • Study 2: Twenty adult Wistar rats, aged 8-10 weeks, were included in the study. The rats were housed in individual cages at 22° C. with 12-h light cycles and had ad libitum access to food and water. Rats were fed a high-fat high-cholesterol diet (44% Carbohydrate, 14% Protein, 42% fat+0.2% Cholesterol) (Mucedola, Milan, IT). After nine weeks of diet, rats were randomly assigned to one of the following groups: Four weeks of high-fat high-cholesterol diet or four weeks of high-fat high-cholesterol diet and 1% Dodecanedioic acid, sodium salt (w/v) dissolved in the water FIG. 18, Panel B). Body weight and food/water intake were monitored weekly.
Oral Glucose Test Tolerance (OGTT): All animals underwent an OGTT at the end of the study. After an overnight fasting, the rats received a 50% D-glucose solution (1 g/kg body weight) by oral gavage. Blood samples were taken by tail bleeding and collected in EDTA tubes. All blood samples were immediately centrifuged, and plasma divided into appropriate subsamples and stored at −20° C. for further analysis. Blood glucose and was measured at 0, 20, 40, 60, 80, 100 and 120 minutes, while plasma insulin at 0, 60 and 120 minutes. Blood glucose levels were measured by glucometer (Accu-Chek, Roche Diagnostics Division, Grenzacherstrasse, CH). Plasma insulin was measured by ELISA (EMD Millipore Corporation, Billerica, MA), with a sensitivity of 0.1 ng/ml and an intra-and inter-assay precision of 1.9% and 7.6%, respectively.
DODA administration prevents the onset of insulin resistance and NASH: To test the hypothesis that DODA could prevent the development of diet-induced insulin resistance and NASH, the inventors administered 1% (w/vol) of DODA in the drinking water together with a high fat-high cholesterol diet for 4 weeks. Rats fed high fat-high cholesterol diet without the administration of DODA were included as controls.
Panels A and B. • Study 1: Twenty adult Wistar rats, aged 8-10 weeks, were included in the study. The rats were housed in individual cages at 22° C. with 12-h light cycles and had ad libitum access to food and water. Rats were fed a high fat high cholesterol diet (44% Carbohydrate, 14% Protein, 42% fat+0.2% Cholesterol) for 4 weeks in the presence or absence of 1% Dodecanedioic acid, sodium salt dissolved in the water (FIG. 25, Panel A). Body weight and food/water intake were monitored weekly. • Study 2: Twenty adult Wistar rats, aged 8-10 weeks, were included in the study. The rats were housed in individual cages at 22° C. with 12-h light cycles and had ad libitum access to food and water. Rats were fed a high fat-high cholesterol diet (44% Carbohydrate, 14% Protein, 42% fat+0.2% Cholesterol). […] Body weight and food/water intake were monitored weekly. […]

[2] = system: human primary hepatocytes; experiment: Nile red staining of lipid droplets; type: cell-based; conditions: C12 1% with palmitic acid 0.4 mM, vs palmitic acid alone, listed as C12
Procedure: Nile Red: Cells were cultured for 24 hours in DMEM with 10% FBS. Prior stimulation, cells were incubated in serum free DMEM overnight. […] After the stimulation, cells were stained with Nile Red (100 ng/ml) for 45 minutes. Stained cells were used for immunofluorescence to quantify the deposition of lipid droplets. Nuclear staining was performed with DAPI and images of lipid droplets were taken using confocal microscope Nikon A1 RHD25 and NIS-Elements imaging software was used to analyze images.
C12 decrease de novo lipogenesis and an increase in fatty acid oxidation in vitro and in vivo: To test the hypothesis that C12 could affect de novo lipogenesis and fatty acid beta-oxidation, human primary hepatocytes were stimulated with palmitic acids (0.4 mM) in the presence or absence of C12 1% (v/w). […] Similar results were also observed in our in vivo experiments. […] Data from in vivo study 1 and 2 were pooled together.

With O=C(O)CCCCCCCCCCC(=O)O [DDDA, dodecanedioic acid] the “cellular total antioxidant capacity” value ([1]; 6 hours, 5 mcg per microliter, p=0.001) was “maintains cellular total antioxidant capacity”, the “cellular total antioxidant capacity” value ([1]; 24 hours, same trend as 6 hours) was “did not reach a level of significance” and the NAMPT enzyme levels (NAMPT; 6 hours, p=0.001) was “significantly increased”. For the same compound, the NAMPT enzyme levels (NAMPT; 24 hours, pattern relative to 6 hours) was “paradoxically reversed”, the SIRT3 protein levels (SIRT3) was “significantly increased” and the “blood glucose concentrations during an oral glucose tolerance test” value (Wistar rats; vs controls) was “decrease”. The “hepatic insulin resistance assessed by HOMA-IR” value (Wistar rats; vs controls) was “decreased”, the “plasma insulin concentrations during an oral glucose tolerance test” value (Wistar rats; vs controls) was “decrease” and the “diet-induced insulin resistance and NASH (overall, prevention)” value (Wistar rats; listed as C12) was “able to prevent diet-induced insulin resistance and NASH; also recorded: prevents diet-induced insulin resistance and NASH”. For the same compound, the “diet-induced insulin resistance and NASH (overall, prevention)” value (Wistar rats; listed as DODA) was “able to prevent diet-induced insulin resistance and NASH; also recorded: prevents diet-induced insulin resistance and NASH” and the “deposition of lipid droplets (Nile red)” value [2] was “decreased deposition of lipid droplets; also recorded: reduces lipid droplets accumulation”.
